Converted amounts (≈) assume the structure as drawn.
Legend:
Type in all cases: cell-based
[1] = tested on: C. albicans ATCC 10231; assay: In vitro antifungal activity (MIC), agar dilution; settings: Candida albicans
Experimental: (§1) The antifungal activity of 1-[(2-fluorophenyl)(4-fluorophenyl)phenylmethyl]-1H-imidazole was shown by its ability to inhibit the growth of different species of yeast and filamentous fungi in vitro. The activity was recorded as the MIC value, that is, the minimum amount of product needed to achieve the complete inhibition of the in vitro growth of the test organism. Testing was performed as follows: a solution of the antifungal agent in ethanol was diluted with DST agar (pH 6.5) or Emmon's Sabouraud dextrose agar to obtain concentrations between 10 and 0.01 mcg/ml, or 80 and 0.16 mcg/m, respectively. The inoculum was standarized in order 1×10^5 cfu/ml, and 10 mcl of each organism was seeded into the agar surface. Incubation was then allowed at 30° C. during 3 days (DST) or 2 days (Emmon's) for yeasts and 10 days for filamentous fungi. Following incubation, the zones of inhibition were measured and compared to an inoculated, drug-free control to yield the MIC value.

[2] = tested on: T. mentagrophytes (clinica) (3); assay: In vitro antifungal activity (MIC), agar dilution; settings: Trichophyton mentagrophytes
Experimental: as §1

[3] = tested on: C. albicans ATCC 28516; assay: In vitro antifungal activity (MIC), agar dilution; settings: Candida albicans
Experimental: as §1

[4] = tested on: Aspergillus flavus; assay: In vitro antifungal activity (MIC), agar dilution
Experimental: as §1

[5] = tested on: T. mentagrophytes (clinica) (2); assay: In vitro antifungal activity (MIC), agar dilution; settings: Trichophyton mentagrophytes
Experimental: as §1

[6] = tested on: Microsporum audouini ATCC 9079; assay: In vitro antifungal activity (MIC), agar dilution
Experimental: as §1

[7] = tested on: Aspergillus fumigatus (1); assay: In vitro antifungal activity (MIC), agar dilution
Experimental: as §1

[8] = tested on: Microsporum canis (clinica); assay: In vitro antifungal activity (MIC), agar dilution
Experimental: as §1

[9] = tested on: T. mentagrophytes (clinica) (1); assay: In vitro antifungal activity (MIC), agar dilution; settings: Trichophyton mentagrophytes
Experimental: as §1

[10] = tested on: Aspergillus fumigatus (2); assay: In vitro antifungal activity (MIC), agar dilution
Experimental: as §1

[11] = tested on: S. cerevisiae ATCC 9763; assay: In vitro antifungal activity (MIC), agar dilution; settings: Saccharomyces cerevisiae
Experimental: as §1

[12] = tested on: C. parapsilosis (clinica); assay: In vitro antifungal activity (MIC), agar dilution; settings: Lodderomyces parapsilosis
Experimental: as §1

[13] = tested on: Aspergillus niger; assay: In vitro antifungal activity (MIC), agar dilution
Experimental: as §1

[14] = tested on: T. mentagrophytes ATCC 9972; assay: In vitro antifungal activity (MIC), agar dilution; settings: Trichophyton mentagrophytes
Experimental: as §1

[15] = tested on: C. guilliermondii (clinica); assay: In vitro antifungal activity (MIC), agar dilution; settings: Meyerozyma guilliermondii
Experimental: as §1

[16] = tested on: T. mentagrophytes (clinica) (4); assay: In vitro antifungal activity (MIC), agar dilution; settings: Trichophyton mentagrophytes
Experimental: as §1

[17] = tested on: C. tropicalis; assay: MIC distribution, serial dilutions in Sabouraud gentamycin broth, microplates; settings: # of strains = 30
Experimental: (§2) The antifungal activity of 1-[(2-fluorophenyl)(4-fluorophenyl)phenylmethyl]-1H-imidazole and bifonazole was determined by serial dilutions in Sabouraud gentamycin broth using microplates. The antifungal agent was diluted in 50% ethanol to obtain concentrations between 40 and 0.015 mcg/ml. Inoculum was 10^7 cfu/ml for yeast and 10^6 cfu/ml for dermatophytes. Incubation was allowed at 37° C. during 2 days for yeasts, and at 29° C. during 7 days for dermatophytes. MIC's were determined as in example 18. The MIC distributions obtained in 9 organisms are shown in the next tables.

[18] = tested on: C. guilliermondii; assay: as above; settings: MIC column 40 (first); # of strains = 5
Experimental: as §2

[19] = tested on: C. parapsilosis; assay: as above; settings: # of strains 10 = UR-4056/14 = Bifonazole
Experimental: as §2

[20] = tested on: M. canis; assay: as above; settings: # of strains = 13
Experimental: as §2

[21] = tested on: T. glabrata; assay: as above; settings: # of strains = 10 = UR-4056/15 Bifonzaole
Experimental: as §2

[22] = tested on: T. mentagrohytes; assay: as above; settings: # of strains = 17
Experimental: as §2

[23] = tested on: C. albicans; assay: as above; settings: # of strains = 50
Experimental: as §2

[24] = tested on: C. krusei; assay: as above; settings: # of strains = 5
Experimental: as §2

[25] = tested on: T. rubrum; assay: as above; settings: # of strains = 6
Experimental: as §2

[26] = Emmon's Sabouraud dextrose agar

Q: What does the source list for c1ccc(-c2ccc(C(c3ccccc3)n3ccnc3)cc2)cc1 (centres unmarked) [Bifonazole, 1-[(4-biphenyl)-phenylmethyl]-1H-imidazole, reference compound]?
A: MIC ([1]; ATCC10231, DST agar): 1 µg/mL (≈ 3.22 µM); MIC ([1]; ATCC10231, Emmon's Sabouraud dextrose agar): 0.63 µg/mL (≈ 2.03 µM); MIC ([2]; DST agar): 1 µg/mL (≈ 3.22 µM); MIC [2, 26]: 5 µg/mL (≈ 16.1 µM); MIC ([3]; ATCC28516, DST agar): 2.5 µg/mL (≈ 8.05 µM); MIC ([3]; ATCC28516, Emmon's Sabouraud dextrose agar): 0.63 µg/mL (≈ 2.03 µM); MIC ([4]; DST agar): 10 µg/mL (≈ 32.2 µM); MIC [4, 26]: 80 µg/mL (≈ 258 µM); MIC ([5]; DST agar): 10 µg/mL (≈ 32.2 µM); MIC [5, 26]: 80 µg/mL (≈ 258 µM); MIC ([6]; ATCC9079, DST agar): 0.05 µg/mL (≈ 0.161 µM); MIC ([6]; ATCC9079, Emmon's Sabouraud dextrose agar): 5 µg/mL (≈ 16.1 µM); MIC ([7]; DST agar): 0.1 µg/mL (≈ 0.322 µM); MIC [7, 26]: 0.31 µg/mL (≈ 0.999 µM); MIC ([8]; DST agar): 0.025 µg/mL (≈ 0.0805 µM); MIC [8, 26]: 2.5 µg/mL (≈ 8.05 µM); MIC ([9]; DST agar): 0.5 µg/mL (≈ 1.61 µM); MIC [9, 26]: 5 µg/mL (≈ 16.1 µM); MIC ([10]; DST agar): 1 µg/mL (≈ 3.22 µM); MIC [10, 26]: 1.25 µg/mL (≈ 4.03 µM); MIC ([11]; ATCC9763, DST agar): 0.25 µg/mL (≈ 0.805 µM); MIC ([11]; ATCC9763, Emmon's Sabouraud dextrose agar): 0.63 µg/mL (≈ 2.03 µM); MIC ([12]; DST agar): 10 µg/mL (≈ 32.2 µM); MIC [12, 26]: 20 µg/mL (≈ 64.4 µM); MIC ([13]; DST agar): 0.1 µg/mL (≈ 0.322 µM); MIC [13, 26]: 2.5 µg/mL (≈ 8.05 µM); MIC ([14]; ATCC9972, DST agar): 1 µg/mL (≈ 3.22 µM); MIC ([14]; ATCC9972, Emmon's Sabouraud dextrose agar): 5 µg/mL (≈ 16.1 µM); MIC [15, 26]: 40 µg/mL (≈ 129 µM); MIC ([15]; DST agar): 10 µg/mL (≈ 32.2 µM); MIC ([16]; DST agar): 0.5 µg/mL (≈ 1.61 µM); MIC [16, 26]: 5 µg/mL (≈ 16.1 µM); MIC Distribution (number of strains) ([17]; MIC 5.0): 2 # of strains; MIC Distribution (number of strains) ([17]; MIC column 10): 1 # of strains; MIC Distribution (number of strains) ([17]; MIC column 40 (first)): 27 # of strains; MIC Distribution (number of strains) [18]: 5 # of strains; MIC Distribution (number of strains) ([19]; MIC 0.6): 1 # of strains; MIC Distribution (number of strains) ([19]; MIC 5.0): 1 # of strains; MIC Distribution (number of strains) ([19]; MIC column 10): 2 # of strains; MIC Distribution (number of strains) ([19]; MIC column 40 (first)): 10 # of strains; MIC Distribution (number of strains) ([20]; MIC 0.038): 1 # of strains; MIC Distribution (number of strains) ([20]; MIC 2.5): 4 # of strains; MIC Distribution (number of strains) ([20]; MIC 5.0): 5 # of strains; MIC Distribution (number of strains) ([20]; MIC column 0.078): 1 # of strains; MIC Distribution (number of strains) ([20]; MIC column 1.2): 2 # of strains; MIC Distribution (number of strains) ([21]; MIC 0.15): 1 # of strains; MIC Distribution (number of strains) ([21]; MIC 0.6): 1 # of strains; MIC Distribution (number of strains) ([21]; MIC 2.5): 3 # of strains; MIC Distribution (number of strains) ([21]; MIC 5.0): 5 # of strains; MIC Distribution (number of strains) ([21]; MIC column 10): 3 # of strains; MIC Distribution (number of strains) ([21]; MIC column 40 (first)): 2 # of strains; MIC Distribution (number of strains) ([22]; MIC 0.038): 1 # of strains; MIC Distribution (number of strains) ([22]; MIC 0.6): 1 # of strains; MIC Distribution (number of strains) ([22]; MIC 2.5): 5 # of strains; MIC Distribution (number of strains) ([22]; MIC column 1.2): 10 # of strains; MIC Distribution (number of strains) ([23]; MIC 2.5): 6 # of strains; MIC Distribution (number of strains) ([23]; MIC 5.0): 28 # of strains; MIC Distribution (number of strains) ([23]; MIC column 10): 11 # of strains; MIC Distribution (number of strains) ([23]; MIC column 20): 1 # of strains; MIC Distribution (number of strains) ([23]; MIC column 40 (first)): 4 # of strains; MIC Distribution (number of strains) ([24]; MIC 2.5): 1 # of strains; MIC Distribution (number of strains) ([24]; MIC column 10): 1 # of strains; MIC Distribution (number of strains) ([24]; MIC column 40 (first)): 3 # of strains; MIC Distribution (number of strains) ([25]; MIC 0.038): 2 # of strains; MIC Distribution (number of strains) ([25]; MIC 0.3): 1 # of strains; MIC Distribution (number of strains) ([25]; MIC 0.6): 1 # of strains; MIC Distribution (number of strains) ([25]; MIC 5.0): 1 # of strains; MIC Distribution (number of strains) ([25]; MIC column 1.2): 1 # of strains

Source: patent US5149707A, “1-((2-fluorophenyl)(4-fluorophenyl)phenylmethyl)-1H-imidazole useful as antifungal agent” (J. Uriach & Cia, S.A., priority 1988, dated 1992)
